Where two headings read alike, the source gives them in different places.
Key:
[1] = system: HUVEC cells; assay: MTT colorimetric viability assay; type: cell-based, human; details: for inhibition of cell growth: 20 μM, after 24 hours' treatment, FIG. 1
Method: The viability of the HUVEC cells was evaluated with the MTT colorimetric assay (3-(4,5-dimethylthiazol-2-yl)-2,5-diphenyltetrazolium bromide). The cells (1000/well) were plated in complete medium in 96-well plates, and after complete adherence the medium was replaced with a new medium with or without the various inhibitors at different concentrations. The plates were processed at different incubation times (24, 48, 72 and 96 hours), and the absorbance was measured at 570 nm.

[2] = system: HUVEC cells; assay: Migration (chemotaxis) assay, Boyden chambers; type: cell-based, human; details: for reduction of endothelial cell migration: 10 μM, HUVEC pre-treated for 24 hours, values standardised on control, FIG. 7; for inhibition of migration: 24 hours' pre-treatment, 10 μM and 20 μM, *P<0.05, FIG. 2
Method: The chemotaxis assay was conducted with Boyden chambers [Albini A, Iwamoto Y, Kleinman H K, Martin G R, Aaronson S A, Kozlowski J M, McEwan R N. A rapid in vitro assay for quantitating the invasive potential of tumor cells. Cancer Res. 1987 Jun. 15; 47(12):3239-45; Albini A, Benelli R. The chemoinvasion assay: a method to assess tumor and endothelial cell invasion and its modulation. Nat Protoc. 2007; 2(3):504-11]. The HUVEC cells (5×10^4) were pre-treated for 24 hours with the inhibitors, resuspended in serum-free medium, and plated in the upper compartment of the Boyden chamber. The complete medium was added in the lower compartment of the chamber, and used as chemoattractant. The two chambers were separated by polycarbonate filters ([…]) coated with collagen (50 μg/mL). After 6 hours' incubation at 37° C., the filters were recovered, the cells present on the upper surface of the filter were mechanically removed, and those on the lower surface were fixed in absolute ethanol and stained with DAPI. The cells were then counted in eight consecutive fields on each filter by fluorescence microscopy.

[3] = system: HUVEC cells; assay: Invasion (chemoinvasion) assay, Boyden chambers, matrigel; type: cell-based, human; details: for invasion in the presence of serum (FBS): 24 hours' pre-treatment, even at 10 μM, *P<0.05, FIG. 3; for reduction of endothelial cell invasion: 10 μM, HUVEC pre-treated for 24 hours, values standardised on control, FIG. 6
Method: The chemoinvasion assay was conducted with Boyden chambers [Albini A, Iwamoto Y, Kleinman H K, Martin G R, Aaronson S A, Kozlowski J M, McEwan R N. A rapid in vitro assay for quantitating the invasive potential of tumor cells. Cancer Res. 1987 Jun. 15; 47(12):3239-45; Albini A, Benelli R. The chemoinvasion assay: a method to assess tumor and endothelial cell invasion and its modulation. Nat Protoc. 2007; 2(3):504-11]. The HUVEC cells (5×10^4) were pre-treated for 24 hours with the inhibitors, resuspended in serum-free medium, and plated in the upper compartment of the chamber. The complete medium was added in the lower compartment of the chamber, and used as chemoattractant. The 12 m polycarbonate filters were coated with matrigel (1 mg/mL). After 18 hours' incubation, the cells in the upper compartment of the chamber were mechanically removed, while those adhering to the lower surface of the filter were fixed in absolute ethanol and stained with DAPI. The cells were counted double-blind in eight consecutive fields by fluorescence microscopy.

[4] = system: HUVEC cells; assay: Morphogenesis on matrigel (capillary-like structures); type: cell-based, human; details: 24 hours' pre-treatment, FIG. 4
Method: A 24-well plate was coated with 300 μl/well of liquid matrigel (10 mg/mL) at 4° C., using cold pipettes and avoiding bubbles. The plate was then incubated for one hour at 37° C., until the matrigel polymerised. The HUVEC cells, pre-treated with the different inhibitors, were resuspended in 1 mL of complete medium and then plated in the different wells. The serum-free medium was used as negative control (CTRL−). After 6 hours' incubation, the organisation of the cells in capillary-like structures was examined with an inverted microscope equipped with a camera for the acquisition of images and a digital analysis system.

[5] = Apoptosis assay (Annexin V / 7-AAD cytofluorimetry); type: cell-based, human; details: human, HUVEC cells, FIG. 5, read-out: percentage of viability
Method: (§1) The HUVEC cells (1×10^5) were plated in six-well plates and left to adhere for 18 hours. The next day, the cells were pre-treated with inhibitors LR6 and LR7 (10 μM) in the presence of complete medium. After 24 hours, the cells were detached, washed with PBS and transferred to tubes for cytofluorimetric analysis. The cells were pelletted and resuspended in Annexin V-binding buffer (0.01M HEPES (4-(2-hydroxyethyl)-1-piperazineethanesulphonic acid) (pH 7.4); 0.14 M NaCl; 2.5 mM CaCl2. Fluorescein isothiocyanate Annexin V and 7-amino-actinomycin D were added to the tubes, and the cells were incubated for 15 minutes at room temperature in the dark. The cells were then washed in PBS, the supernatant was removed and the cells resuspended in […] of binding buffer. The samples were analysed on a FACSCanto cytofluorimeter (BD Biosciences), and analysed with FACSDiva Software 6.1.2.

[6] = system: HUVEC cells; assay: as above; type: cell-based, human; details: 10 μM, 24 hours, FIG. 5
Method: as §1

[7] = system: hepatocarcinoma cell lines; details: 25 μM; cited from earlier work
[8] = system: hepatocytes; details: high concentrations (exceeding 100 μM); cited from earlier work
[9] = system: fibrosarcoma cells; details: 10 μM; cited from earlier work
[10] = target: MMP-9 (Homo sapiens, UniProt P14780); details: 10 μM; cited from earlier work
[11] = target: T1, MMP-2 (Homo sapiens, UniProt P08253); details: 10 μM; cited from earlier work
T1 sequence (P08253 110-660): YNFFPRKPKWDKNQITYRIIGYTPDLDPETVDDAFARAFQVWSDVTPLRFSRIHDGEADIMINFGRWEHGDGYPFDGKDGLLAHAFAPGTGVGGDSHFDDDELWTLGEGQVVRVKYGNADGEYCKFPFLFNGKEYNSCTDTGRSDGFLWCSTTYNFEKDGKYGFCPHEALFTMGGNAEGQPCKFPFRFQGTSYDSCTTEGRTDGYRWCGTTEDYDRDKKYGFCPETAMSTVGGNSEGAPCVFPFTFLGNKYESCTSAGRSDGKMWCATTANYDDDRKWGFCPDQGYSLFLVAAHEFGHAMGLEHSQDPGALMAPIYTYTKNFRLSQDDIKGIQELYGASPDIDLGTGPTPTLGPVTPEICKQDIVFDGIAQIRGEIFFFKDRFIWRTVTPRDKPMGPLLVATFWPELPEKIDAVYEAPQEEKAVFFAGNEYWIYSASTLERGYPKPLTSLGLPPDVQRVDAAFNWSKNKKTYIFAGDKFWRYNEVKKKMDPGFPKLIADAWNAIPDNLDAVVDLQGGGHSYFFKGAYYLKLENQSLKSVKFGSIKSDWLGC

[12] = system: endothelial cells; details: cited from earlier work
[13] = system: endothelial cells; details: cited from earlier work; remark: listed apart in the source
[14] = system: endothelial cells; details: cited from earlier work; remark: listed apart in the source
[15] = system: prostate cancer cell lines; details: 40 μM; cited from earlier work
[16] = system: fibrosarcoma cells; details: cited from earlier work

MMP-9, sequence (P14780 94-707, species assumed): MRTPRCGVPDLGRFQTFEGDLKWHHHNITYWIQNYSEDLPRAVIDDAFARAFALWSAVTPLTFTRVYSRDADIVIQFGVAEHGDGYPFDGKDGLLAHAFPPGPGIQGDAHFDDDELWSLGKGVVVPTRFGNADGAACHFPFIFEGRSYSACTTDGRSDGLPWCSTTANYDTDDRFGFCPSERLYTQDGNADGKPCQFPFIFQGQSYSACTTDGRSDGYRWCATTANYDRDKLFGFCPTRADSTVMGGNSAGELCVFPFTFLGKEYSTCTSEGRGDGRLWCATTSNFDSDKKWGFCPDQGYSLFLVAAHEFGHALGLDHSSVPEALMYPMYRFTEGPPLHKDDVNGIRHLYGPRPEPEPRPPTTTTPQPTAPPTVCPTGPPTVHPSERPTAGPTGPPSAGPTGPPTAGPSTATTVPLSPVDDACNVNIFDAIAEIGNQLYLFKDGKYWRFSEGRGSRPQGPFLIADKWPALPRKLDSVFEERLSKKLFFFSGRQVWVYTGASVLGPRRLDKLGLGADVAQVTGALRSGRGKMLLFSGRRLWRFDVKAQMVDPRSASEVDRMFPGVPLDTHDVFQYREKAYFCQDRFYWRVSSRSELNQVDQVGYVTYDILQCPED

COc1cc(O)c(CC=C(C)C)c(O)c1C(=O)/C=C/c1ccc(F)cc1 [LR6, (E)-1-[2,4-dihydroxy-6-methoxy-3-(3-methyl-but-2-enyl)prenyl]-3-(4-fluorophenyl)-prop-2-en-1-one]
cell proliferation ([1]; 10 μM, after 72 and 96 hours' treatment): able to reduce cell proliferation
inhibition of cell growth [1]: Significant inhibition of cell growth
reduction of endothelial cell migration [2]: ~75%
inhibition of migration [2]: Significant inhibition of migration
invasion in the presence of serum (FBS) [3]: significantly reduces invasion
FBS-dependent morphogenesis [4]: interferes with FBS-dependent morphogenesis
viability at 24 h, 10 µM [5]: ~90%
apoptosis [6]: absence of apoptosis

COCOc1cc(OC)c(C(=O)/C=C/c2ccc(F)cc2)c(O)c1CC=C(C)C [LR7, (E)-3-(4-fluorophenyl)-1-[2-hydroxy-6-methoxy-4-(methoxymethyloxy)-3-(3-methyl-but-2-enyl]-phenyl)prop-2-en-1-one]
inhibition of cell growth [1]: Significant inhibition of cell growth
cytostatic activity ([1]; 10 and 20 μM, after 48 hours' incubation): exhibited cytostatic activity
inhibition of migration [2]: Significant inhibition of migration
invasion in the presence of serum (FBS) [3]: significantly reduces invasion
FBS-dependent morphogenesis [4]: interferes with FBS-dependent morphogenesis
viability at 24 h, 10 µM [5]: ~90%
apoptosis [6]: absence of apoptosis

COc1cc(O)c(CC=C(C)C)c(O)c1C(=O)/C=C/c1ccc(F)c(F)c1 [LR16, (E)-3-(3,4-difluorophenyl)-1-[2,4-dihydroxy-6-methoxy-3-(3-methyl-but-2-enyl)-phenyl]-prop-2-en-1-one]
reduction of endothelial cell invasion [3]: about 80%

COCOc1cc(OC)c(C(=O)/C=C/c2ccc(F)cc2F)c(OCOC)c1CC=C(C)C [LR17, (E)-3-(2,4-difluoro-phenyl)-1-[6-methoxy-2,4-dimethoxymethyloxy-3-(3-methyl-but-2-enyl)phenyl]-prop-2-en-1-one]
reduction of endothelial cell invasion [3]: ~75%

COc1cc(O)c(CC=C(C)C)c(O)c1C(=O)/C=C/c1ccc(F)cc1F [LR19, (E)-3-(2,4-difluorophenyl)-1-[2,4-dihydroxy-6-methoxy-3-(3-methyl-but-2-enyl)-phenyl]-prop-2-en-1-one]
reduction of endothelial cell migration [2]: about 80%

COc1cc(O)c(CC=C(C)C)c(O)c1C(=O)/C=C/c1ccc(O)cc1 [XN, Xanthohumol]
reduction of endothelial cell migration [2]: about 50%
reduction of endothelial cell invasion [3]: about 60%
apoptosis [7]: induces apoptosis
viability of the hepatocytes [8]: no effect on the viability
invasion by fibrosarcoma cells [9]: inhibits invasion
activity of MMP-9 [10]: inhibits
activity of MMP-2 [11]: strongly inhibited
cytotoxic activity against activated endothelial cells ([12]; 10 μM): potent cytotoxic activity
concentration at which cell death is observed [12]: exceeding 25 μM
effect on endothelial cells at lower concentrations ([12]; concentrations lower than 10 μM, even after long exposure times): does not exhibit any significant effect
chemotaxis of the endothelial cells and invasion in vitro ([13]; 5 μM): inhibits chemotaxis
chemotaxis of the endothelial cells and invasion in vitro ([13]; 10 μM): complete inhibition
toxicity ([14]; 200 μM): no toxicity was observed
concentration interval in which effects on morphogenesis are evident [14]: 5 to 10 µM
growth of prostate cancer cell lines [15]: inhibitory effect

COc1cc2c(c(O)c1C(=O)/C=C/c1ccc(O)cc1)C=CC(C)(C)O2 [XNC, xanthohumol C]
cytotoxic effect [16]: loss of cytotoxic activity

O-methylxanthohumol ether SEM [XN-SEM]
cytotoxic effect [16]: no cytotoxic effect

— patent US9617213B2, “Synthetic analogues of xanthohumol” (UNIVERSITA' DI PISA, priority 2013, dated 2017)
